These compounds were tested against Muscarinic acetylcholine receptor (Rattus norvegicus) (UniProt P08482+P08483+P08485+P08911+P10980) (assay: Displacement of [3H]-QNB from muscarnic receptor in Rattus norvegicus (rat) cerebral cortex at 10 uM after 90 min by scintillation counting analysis).
Format: tissue-based

inhibition	Compound
31%	CCC1(CC)CC(COC(=O)Nc2ccc(N3CCCCC3)cc2)OC1=O (stereo unspecified)
16%	CCC1(CC)CC(CN2CCN(c3ccccc3)CC2)OC1=O (stereo unspecified)
31%	CCC1(CC)CC(CN2CCN(c3ccccc3C#N)CC2)OC1=O (stereo unspecified)
97%	CCC1(CC)CC(CN2CCN(C(c3ccccc3)c3ccccc3)CC2)OC1=O (stereo unspecified)
5%	CCC1(CC)CC(CN2CCN(C(=O)c3ccccc3)CC2)OC1=O (stereo unspecified)
68%	CCC1(CC)CC(CN2CCC(c3ccccc3)CC2)OC1=O (stereo unspecified)
46%	CCC1(CC)CC(CN2CCN(c3ccccc3O)CC2)OC1=O (stereo unspecified)
9%	CCC1(CC)CC(CN2CCN(c3cccc(OC)c3)CC2)OC1=O (stereo unspecified)
18%	CCC1(CC)CC(CN2CCN(c3ccc(C#N)cc3)CC2)OC1=O (stereo unspecified)
32%	CCC1(CC)CC(CN2CCN(c3ccccc3OC)CC2)OC1=O (stereo unspecified)
46%	CCC1(CC)CC(CN2CCC(c3nc4ccccc4[nH]3)CC2)OC1=O (stereo unspecified)
44%	CCC1(CC)CC(CN2CCc3ccccc3C2)OC1=O (stereo unspecified)
7%	CCC1(CC)CC(CN2CCN(c3ccc(O)cc3)CC2)OC1=O (stereo unspecified)
26%	CCC1(CC)CC(CN2CCN(c3ccc(OC)cc3)CC2)OC1=O (stereo unspecified)
18%	CCC1(CC)CC(CN2CCN(c3ccc([N+](=O)[O-])cc3)CC2)OC1=O (stereo unspecified)

What follows are compounds tested against Muscarinic acetylcholine receptor (assay: Displacement of [3H]-QNB from muscarnic receptor in Rattus norvegicus (rat) cerebral cortex after 90 min by scintillation counting analysis).
Format: tissue-based

IC50	Compound
340 nM	CCC1(CC)CC(CN2CCN(C(c3ccccc3)c3ccccc3)CC2)OC1=O (stereo unspecified)
